Read-outs that look alike come from different tables or passages of the source. Square brackets hold non-standard residues; d marks the D form. Peptide text beside a SMILES is read from it. * marks the point of attachment. DOTA = O=C(O)CN1CCN(CC(=O)O)CCN(CC(=O)*)CCN(CC(=O)O)CC1; Cha = N[C@@H](CC1CCCCC1)C(=O)O; Nle = CCCC[C@H](N)C(=O)O; Ahx = NCCCCCC(=O)O

One molecule from PMC6733935, “A convenient and efficient total solid-phase synthesis of DOTA-functionalized tumor-targeting peptides for PET imaging of cancer” (EJNMMI Research, 2019) can be followed below.

Data set [1] concerns BN/GRP receptor-positive MDA-MB-231 tumors. The data set can be described thus: Receptor blocking study in MDA-MB-231 tumor-bearing nude mice. The class given is in vivo. Here is the method: For the receptor blocking studies, each animal was injected with excess cold of BN peptide (~ 200 μg) 20 min prior to the radiotracers injection. The animals (n = 2 per group) were sacrificed at 60 min post radiotracers injection and the % ID/g for the tumor and major organs was calculated as stated before.
^68Ga-labeled BN peptides were further investigated in nude mice carrying estrogen-independent and highly aggressive MDA-MB-231 xenografts in order to determine their potential for diagnosis of BN/GRP receptor-positive breast cancer in vivo (Table 4). […] (with 28% washout from the tumors over 2 h). […] When a blocking dose of 300 μg of nonradioactive BN peptide was injected intramuscularly for in vivo saturation of receptors 20 min prior to the administration of radiopeptide, it was observed that the uptake in the tumors was reduced by approximately 80% (0.47 ± 0.06% ID/g blocked vs. 2.32 ± 0.25% ID/g unblocked, P = 0.002), highlighting the specificity of the ^68Ga-labeled BN peptide for respective BN/GRP receptor-positive breast cancer cells. […] The tumor uptake values of other BN peptides varied from 1.78 ± 0.40% to 2.15 ± 0.33% ID/g at 1 h p.i and from 0.84 ± 0.13% to 1.37 ± 0.25% ID/g at 2 h p.i. (Table 4). With the blocking dose, good reduction in the tumors (from 51 to 80%) was attained validating the in vivo tumor receptor specificity of these radiolabeled BN peptides for BN/GRP receptor-positive breast cancer cells.

The subject of data set [2] is PC3 prostate carcinoma xenografts. It is filed as in vivo, nude mice. To be noted: for uptake in the PC3 tumors / tumor-to-blood ratio / tumor-to-muscle ratio: nude mice bearing PC3 xenografts. Here is the method:
BN/GRP receptor-positive MDA-MB-231 and PC3 cell lines (American Type Culture Collection, Rockville, USA) were grown as monolayers at 37 °C in a humidified atmosphere containing RPMI-1640 culture media with 10% fetal bovine serum (FBS) in tissue culture flasks. Twenty-four hours prior to conducting the tumor implantation, the media was replaced with RPMI-1640/10% FBS. The cells were grown to 80-90% confluency and harvested by trypsinization. After centrifugation, about 50 million cells were suspended in 1 mL media for implantation into mice. To prepare cells for inoculation, MDA-MB-231 or PC3 cancer cells with media were centrifuged, the media decanted, and the cell pellet was mixed with phosphate-buffered saline (PBS) to reach a concentration of approximately 5 million cells per 100 μL PBS.
Based on encouraging biological and tumor-targeting properties, ^68Ga-DOTA(cyclen)-Ahx-BN was further tested in nude mice bearing PC3 prostate carcinoma xenografts. […] Kidney was the only major organ which retained most of the radioactivity (up to 6% ID/g) after 2 h p.i. […] The tumor-to-blood and tumor-to-muscle ratios were 3.27 and 12.62 at 1 h and 2.85 and 11.40 at 2 h p.i., respectively (data not shown).

A further data set deals with MDA-MB-231 tumor. The data set can be described thus: NanoPET/CT imaging of MDA-MB-231 tumor-bearing nude mice. It is filed as in vivo. The following applies: 60 min p.i. Here is the method: PET/CT scans were performed using a preclinical NanoPET/CT scanner (Mediso, Hungary) on MDA-MB-231 tumor-bearing ~ 8-week-ld female nude mice. Mice (19–23 g) were anesthetized prior to the imaging with a mixture of (100 μL, subcutaneous injection) ketamine and xylazine. One hour after the intravenous injection of radiolabeled BN peptide (100 μL peptide, 100–150 μCi, total peptide dose ~ 100 ng) via the tail vein into the anesthetized mouse, each mouse was placed in the camera in prone position and static image was acquired for 30 min. The acquired raw data in these imaging studies were reconstructed to visible image form using Interveiw Fusion software (Mediso, Hungary).

With `CCCC[C@H](NC(=O)[C@H](Cc1c[nH]cn1)NC(=O)[C@H](CC1CCCCC1)NC(=O)[C@@H](NC(=O)[C@H](C)NC(=O)[C@H](Cc1c[nH]c2ccccc12)NC(=O)[C@H](CCC(N)=O)NC(=O)[C@H](CS)NC(=O)CNC(=O)CNC(=O)CCCCCNC(=O)CN1CCN(CC(=O)O)CCN(CC(=O)O)CCN(CC(=O)O)CC1)C(C)C)C(=O)N[C@@H](CCSC)C(N)=O` [^68Ga-DOTA-Ahx-BN Cyclen, metal not drawn] ({DOTA-Ahx}-GGCQWAV[Cha]H[Nle]M-NH2), the “Tumor uptake, blocked” value in data set [1] (blocking dose of 300 μg nonradioactive BN peptide 20 min prior to radiopeptide, 1 h p.i., n = 2 per group) turned out to be 0.47 ± 0.06 % ID/g. Further, the “reduction of uptake in the tumors with blocking dose” value in data set [1] (blocking dose of nonradioactive BN peptide 20 min prior, 1 h p.i.) is “approximately 80%”. Moreover, the “blockade of uptake in pancreas with blocking dose” value in data set [1] (same blocking dose, maximum blockade) is reported as 80%. Further, the “radioactivity retained in Kidney” value in data set [2] (mouse, in vivo) was “up to 6 % ID/g”. Moreover, the results for the “uptake in the PC3 tumors” value in data set [2] (1 h p.i.) and in data set [2] (2 h p.i.) were 2.05 ± 0.54 % ID/g and 1.34 ± 0.22 % ID/g, respectively. In addition, the tumor-to-blood ratio is recorded as 3.27 in data set [2] (1 h p.i. (data not shown)) and 2.85 in data set [2] (2 h p.i. (data not shown)). The tumor-to-muscle ratio in data set [2] (1 h p.i. (data not shown)) amounted to 12.62; in data set [2] (2 h p.i. (data not shown)), 11.40. Moreover, the “Tumor visibility in PET image under blocking condition” value in the data set with MDA-MB-231 tumor (in the presence of 300 μg cold BN peptide) was “hardly detectable”. Moreover, the “Tumor visibility in PET image” value in the data set on MDA-MB-231 tumor (~100 ng, ~100 μCi, unblocked) is “clearly visible”.
